# Measured values published in patent publication US20080227131A1, “Signalling Assay and Cell Line” (GE HEALTHCARE UK LIMITED, priority 2005, published 2008).
# Experiments:
# [1] = tested on: EGFP-MAPK14 fusion protein; test: EGFP-MAPK14 fusion protein translocation assay for activation of MAPK14 (N:C ratio) in stable SW1353 cells; type: cell-based, human
# Protocol: During assay preparation and throughout the assay, background stress response was kept to a minimum; microplates, cells and solutions were maintained at 37° C., 5% CO2, and 95% relative humidity. All inhibitors and activators were added to cells in complete medium.
# 50 μl of the prepared test activator in complete medium and control compounds were added and incubated at 37° C., 5% CO2, and 95% relative humidity. For fixed cell assays, 150 μl 10% (v/v) formalin (4% formaldehyde) was added at room temperature for 20 min. Cells were washed twice with PBS and nuclei were stained with Hoechst (10 μM) in PBS prior to imaging.
# [2] = tested on: phospho-(Thr180/Tyr182)-p38(MAPK14); test: Anti-phospho-p38 immunofluorescence assay in SW1353 cells; type: cell-based, human; conditions: 30 min treatment, fixed; n=8; read-out: EC50, immunofluorescence assay (Alexa647-anti-phospho-p38 signal)
# Protocol: The temporal and biological response of the EGFP-MAPK14 assay was validated through co-analysis with a recognised assay for p38 (MAPK14) activation—an immunofluorescence assay targeting phospho-(Thr180/Tyr182)-p38(MAPK14). […] Cells were then washed (1% goat serum, 0.1% Tween in PBS), permeabilized (0.5% Triton X in wash buffer) for 15 minutes at room temperature and washed again. 50 μl of rabbit anti-phospho-p38 antibody at 1:200 (Zymed Laboratories, San Francisco, USA) was added and incubated for 1 hr at room temperature prior to two washes and the addition of 50 μl of goat-anti rabbit Alexa647 antibody (Molecular Probes) at 1:200 and incubation for 1 hr at room temperature. After 2 washes, cells were imaged in PBS to detect Hoechst, EGFP-MAPK14 and Alexa647 on an IN Cell Analyzer 1000 instrument.
compound,measurement,setting,value
OC[C@@H](O)[C@@H](O)[C@H](O)[C@@H](O)CO [sorbitol],Duration of stimulation after initial exposure,"[1]; live cells, 0.4 M",at least 90 minutes
same,Nuclear accumulation of EGFP-MAPK14 fusion protein,"[1]; live cells, 0.4 M for 15 mins",clearly demonstrate nuclear accumulation
COc1ccc(C[C@H]2NC[C@H](O)[C@H]2OC(C)=O)cc1 [anisomycin],Nuclear accumulation of EGFP-MAPK14 fusion protein,"[1]; live cells, 300 nM for 15 mins",clearly demonstrate significant nuclear accumulation
IL-1β,EC80,[1]; concentration used as activator in the inhibitor assay,12 pM
same,Translocation of EGFP-MAPK14 signal from cytoplasm to nucleus,"[1]; fixed cell assay, 316 pM for 30 minutes (FIG. 19)",clear translocation
same,Translocation of EGFP-MAPK14 signal from cytoplasm to nucleus,"[1]; living cells, 12 pM",clear translocation
same,EC50,[2],7.82 pM
